Data published in patent US20030147850A1 (priority 2002, published 2003).

How the values were obtained:
[1] = test system: vesicular stomatitis virus (VSV)
[2] = test system: erythroleukemia tumor cells; set-up: species or system C57BL male mice; conditions: mouse, in vivo
[3] = test system: P388 tumor cells; set-up: species or system DBA/BALB(F1) male mice; conditions: mouse, in vivo, ip, 5 mg/kg

Row | Substance | protection of cells against virus-induced cytopathology [1] | Tumor mass [2] | Tumor mass [3]
1 | Disodium succinate hexahydrate | no effect | – | –
2 | Recombinant human interferon-alpha2b [IFN] | – | 354 ± 16 mg | 4800 ± 500 mg
